Measured values as given in US20260224544A1, “Intranasal Formulations for Treating Obstructive Sleep Apnea” (Mosanna Therapeutics AG, priority 2023, published 2026).
Entries after “also recorded” stand apart in the source; their conditions may differ.

Columns and labels:
[1] = Compound 1 drug substance stability (ICH storage conditions); type: physicochemical; settings: long term conditions 25±2° C./60±5%, data not shown
Protocol: A stability study for compound 1 batch H (non-micronized, GMP) was initiated as per ICH storage conditions described in Table 36.
Results for 1 month of storage at 25±2° C./60±5% RH, 30±2° C./65±5% RH and at 40±2° C./75±5% RH are available to date.
A stability study for compound 1 batch L and M (micronized to d90<10 μm and d90<35 μm respectively, scheduled GMP sublots of compound 1 batch H) will be initiated as per ICH reference storage conditions described in Table 37 and Table 38.
To date, only limited data are available on compound 1 drug substance both non-micronized and micronized.

[2] = Compound 1 drug substance batch analysis (particle size distribution); type: physicochemical
From the text: The following compound 1 batches were manufactured (Table 31).

[3] = test system: upper airway collapsibility; settings: anesthetized pigs, administered topically to the upper airway; Wirth et al. 2013; cited from earlier work
[4] = test system: male patients with Obstructive Sleep Apnea-Hypopnea Syndrome (OSAHS); assay: Phase 2 clinical trial: change from baseline in Apnea Hypopnea Index (AHI) by overnight polysomnography; type: in vivo, human; settings: single intranasal dose 18 mg
Protocol: (§1) This was a single intranasal dose, multi-center, randomized, placebo-controlled, double-blind, 2-way crossover study with two treatment periods in male patients with Obstructive Sleep Apnea-Hypopnea Syndrome (OSAHS).
(§2) After a screening phase of up to 21 days, the patients received single doses of 18 mg of compound 1 administered as 3 actuations of 100 μL of study drug into each nostril (9 mg/nostril) or matching placebo at bedtime in each study period. The single nasal doses were administered in a sitting position. There was a wash-out period of 2 days to 3 weeks between the two study periods. The duration of the study per patient ranged from 13 days to a maximum of 8 weeks.
Efficacy was assessed in a blinded fashion using overnight polysomnographic recordings (PSG) which were centrally read and interpreted. The central readers were blinded with regard to the treatment sequence the patients received and with regard to potential safety findings. Maintenance of Wakefulness Tests (MWT) and Stanford Sleepiness Scores (SSS) were also used for the assessment of Excessive Daytime Sleepiness (EDS), and plasma concentrations of compound 1 were assessed at baseline and approximately 10 hours after study drug administration (data not shown). […]
Patients were analyzed using the treatment they actually received at each period, irrespective of the treatment sequence they were randomized to. […]

[5] = test system: male patients with Obstructive Sleep Apnea-Hypopnea Syndrome (OSAHS); assay: Phase 2 clinical trial: treatment emergent adverse events (TEAE); type: in vivo, human; settings: single intranasal dose 18 mg, n = 38
Protocol: as §1, §2
The Safety population was defined as all randomized patients exposed to the study medication, regardless of the amount of treatment administered. Patients were analyzed using the treatment they actually received at each period.

## COc1ccc(CC(=O)NCc2ccccc2-c2ccccc2C(=O)NCCc2cccnc2)cc1 [listing 1 of 2 here]
[1]; micronized, 2004 lot
  time for which stability was demonstrated: up to 12 months

## COc1ccc(CC(=O)NCc2ccccc2-c2ccccc2C(=O)NCCc2cccnc2)cc1 [listing 2 of 2 here]
[1]; lots manufactured in 2004
  time for which stability was demonstrated: up to 36 months

## COc1ccc(CC(=O)NCc2ccccc2-c2ccccc2C(=O)NCCc2cccnc2)cc1 [Cmpd 1 batch E]
[2]; micronized drug substance
  Particle size distribution d10: d10 0.96 μm
  Particle size distribution d50: d50 4.14 μm
  Particle size distribution d90: d90 8.85 μm

## COc1ccc(CC(=O)NCc2ccccc2-c2ccccc2C(=O)NCCc2cccnc2)cc1 [Cmpd 1 batch K]
[2]; micronized drug substance
  Particle size distribution d10: d10 1.81 μm
  Particle size distribution d50: d50 12.53 μm
  Particle size distribution d90: d90 30.01 μm

## COc1ccc(CC(=O)NCc2ccccc2-c2ccccc2C(=O)NCCc2cccnc2)cc1 [Cmpd 1 batch L]
[2]; micronized drug substance
  Particle size distribution d10: d10 0.80 μm
  Particle size distribution d50: d50 2.3 μm
  Particle size distribution d90: d90 5.9 μm

## COc1ccc(CC(=O)NCc2ccccc2-c2ccccc2C(=O)NCCc2cccnc2)cc1 [Compound 1, 2′-{[2-(4-methoxy-phenyl)-acetylamino]-methyl}-biphenyl-2-carboxylic acid (2-pyridin-3-yl-ethyl)-amide]
[2]; micronized drug substance
  D90 of drug substance: approximately 4.9 μm
[2]; non micronized batch sieved with a 32 μm mesh
  D90 of drug substance: approximately 28 μm
[3]
  inhibition of upper airway collapsibility: dose-dependently inhibit upper airway collapsibility
[4]; ITT population
  AHI (num/hr) LS mean difference, compound 1 versus placebo, change from baseline: −3.78 num/hr
[4]
  primary efficacy outcome (reduction of AHI versus placebo): not statistically significant; also recorded: no significant improvement in obstructive sleep apnea
[5]
  All grade TEAEs: Cough, %: (50.0%)
  All grade TEAEs: Eye Disorders, %: (57.9%)
  All grade TEAEs: Increased tearing, %: (52.6%)
  All grade TEAEs: Nasal discomfort, %: (36.8%)
  All grade TEAEs: Respiratory, %: (97.4%)
  All grade TEAEs: Rhinorrhea, %: (18.4%)
  All grade TEAEs: Sneezing, %: (84.2%)
  All grade TEAEs: Throat irritations, %: (34.2%)
